Data: publication PMC6934184, “Selective DNA-PKcs inhibition extends the therapeutic index of localized radiotherapy and chemotherapy” (The Journal of Clinical Investigation, 2019)

Molecular target: T1, TLK2 (Homo sapiens, UniProt Q86UE8)
T1 construct: purchased Thermo Fisher Scientific (Life Technologies) SelectScreen
Experiment: SelectScreen LanthaScreen
Format: binding
Settings: read-out: % displacement
Summary of the method: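 SelectScreen broad panel; activity (Z'LYTE, Adapta) plus binding formats. ATP: Km app for CSF1R Z'LYTE; 10 for CAMK1 Adapta. Readout = % per kinase.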

T1 sequence (Q86UE8 whole entry): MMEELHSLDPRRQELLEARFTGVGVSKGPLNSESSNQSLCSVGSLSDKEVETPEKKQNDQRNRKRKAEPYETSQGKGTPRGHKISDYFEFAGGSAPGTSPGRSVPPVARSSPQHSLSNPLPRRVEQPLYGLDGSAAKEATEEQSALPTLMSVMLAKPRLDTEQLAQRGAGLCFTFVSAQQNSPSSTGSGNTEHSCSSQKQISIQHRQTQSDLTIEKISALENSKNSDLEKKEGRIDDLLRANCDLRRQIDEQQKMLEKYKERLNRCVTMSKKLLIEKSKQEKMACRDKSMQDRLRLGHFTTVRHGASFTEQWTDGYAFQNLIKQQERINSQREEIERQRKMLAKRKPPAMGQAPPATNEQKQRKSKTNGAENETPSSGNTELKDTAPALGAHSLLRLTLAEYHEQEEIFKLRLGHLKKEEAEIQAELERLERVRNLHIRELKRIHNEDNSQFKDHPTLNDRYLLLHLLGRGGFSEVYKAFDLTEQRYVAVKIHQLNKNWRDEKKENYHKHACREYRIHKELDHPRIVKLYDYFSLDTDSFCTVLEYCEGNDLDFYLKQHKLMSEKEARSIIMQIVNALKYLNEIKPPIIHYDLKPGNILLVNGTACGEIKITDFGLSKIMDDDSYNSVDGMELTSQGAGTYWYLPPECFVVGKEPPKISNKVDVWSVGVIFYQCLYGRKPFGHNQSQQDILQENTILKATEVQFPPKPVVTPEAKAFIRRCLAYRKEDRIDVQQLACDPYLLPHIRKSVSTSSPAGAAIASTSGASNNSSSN

SMILES: CN(C(=O)CN1CCOCC1)c1ccc2sc3c(-c4cccc5c(=O)cc(N6CC7CCC(C6)O7)oc45)cccc3c2c1 [NU5455]
- inhibition at 1 µM: -0.3%
